The results in this text go back to PMC10764553, “Characterization of a thermophilic and glucose-tolerant GH1 β-glucosidase from hot springs and its prospective application in corn stover degradation” (Frontiers in Microbiology, 2023).

Experiment [1] concerns T1, LQBG8.
T1 construct: differs from Tepidiforma bonchosmolovskayae WP158066159.1 only at residue 48 (Ser in LQBG8, Gly there)
The experiment in a line: glucose release (glucose oxidase-peroxidase), Lineweaver-Burk. The class given is biochemical. To be noted: 70 °C, pH 5.6; cellobiose 0-20 mg/mL (Km lies above the tested range).

The test system of experiment [2] is T1, LQBG8. The experiment can be described thus: p-nitrophenol release at […] nm. The class given is biochemical. To be noted: optimal temperature (70 °C); pH not stated for this assay.

As usually defined, the Km is the concentration of substrate that gives half-maximal velocity. On to `OC[C@H]1O[C@@H](O[C@H]2[C@H](O)[C@@H](O)C(O)O[C@@H]2CO)[C@H](O)[C@@H](O)[C@@H]1O` (some centres unmarked) [cellobiose], for which, in experiment [1], the Km came out at 28 ± 1.9 mg/mL.
As to `O=[N+]([O-])c1ccc(O[C@@H]2O[C@H](CO)[C@@H](O)[C@H](O)[C@H]2O)cc1` [p-nitrophenyl-β-D-glucopyranoside], the Km in experiment [2] was determined as 260 ± 10 µM.
